According to US5100797A, “Fucosidase inhibitors” (priority 1989, dated 1992):

What was measured:
α-glucosidase = conditions: Kite et al. 1988; cited from earlier work
[1] = biological target: T1, human liver α-L-fucosidase (Homo sapiens, UniProt P04066); test: Inhibition of human liver α-L-fucosidase (4-umbelliferyl glycoside substrate, Dixon plot); type: biochemical; conditions: for Ki: human liver extract, 4-umbelliferyl substrate 0.5 mM, Dixon graphical procedure; for fucosidase inhibition, in words: human liver α-L-fucosidase
T1 construct: The resultant supernatant was used as the source of human glycosidases; from tissue; host or cells: post-mortem human liver, 37,000 g supernatant of homogenate
T1 sequence (P04066 32-466): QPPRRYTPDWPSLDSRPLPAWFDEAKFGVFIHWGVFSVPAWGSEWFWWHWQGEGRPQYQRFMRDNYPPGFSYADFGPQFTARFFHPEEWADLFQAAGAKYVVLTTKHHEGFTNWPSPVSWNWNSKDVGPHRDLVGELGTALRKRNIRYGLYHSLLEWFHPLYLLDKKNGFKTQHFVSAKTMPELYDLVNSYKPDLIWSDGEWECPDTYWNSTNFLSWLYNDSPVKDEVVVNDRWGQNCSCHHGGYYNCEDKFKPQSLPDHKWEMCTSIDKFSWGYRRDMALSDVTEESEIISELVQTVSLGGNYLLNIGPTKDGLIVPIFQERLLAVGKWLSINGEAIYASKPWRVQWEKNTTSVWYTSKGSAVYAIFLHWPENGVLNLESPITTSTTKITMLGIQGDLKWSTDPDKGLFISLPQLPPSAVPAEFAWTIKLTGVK
Experimental: (§1) Post-mortem human liver, which had been stored at -20° C. until required was homogenized in deionized water (50%, w/v) in a Potter-Elvehjem homogenizer and then centrifuged at 37,000 g for 30 min in an MSE 18 centrifuge. The resultant supernatant was used as the source of human glycosidases.
The specificity of the inhibitors was determined by assaying the glycosidases in the presence of and absence of a 1 mM solution of each compound. […] The Lineweaver-Burk graphical procedure and secondary plots of the slope against inhibitor concentration were used to determine the nature of inhibition and the values of Ki for these activities.

pKa of inhibitors = type: physicochemical
[2] = system: N-acetyl-β-D-hexosaminidase; test: Glycosidase specificity in human liver extract: N-acetyl-β-D-hexosaminidase; type: biochemical; conditions: 1 mM compound
Experimental: as §1, with “glycosidases. A lyophilized extract of liver from Charonia lampas was obtained from Seikagaku Kogyo Co., Japan for the isolation of α-L-fucosidase by the published procedure of Iijima and Egami, J. Biochem. 70, 75-78 (1971).” for “glycosidases.”
(§2) The glycosidase activities in an extract of human liver were assayed by using the appropriate fluorigenic 4-umbelliferyl glycoside substrate (Koch-Light, Haverhill, Suffolk, U.K.) with a concentration of 0.5 mM at the optimal pH for each enzyme [Burditt et al., Biochem. J. 189, 467-473 (1980)]. The specificity of the inhibitors was determined by assaying the glycosidases in the presence of and absence of a 1 mM solution of each compound. The nature of the inhibition of human α-L-fucosidase, the value of Ki determined by using the Dixon graphical procedure and the effect of pH on the inhibition were investigated as described previously by Al Daher et al., Biochem. J. 258, 613-615 (1989). Bovine epididymal and Charonia lampas α-L-fucosidase were assayed using para-nitrophenyl-α-L-fucopyranoside as substrate in phosphate-citrate buffer (McIlvaine), pH 6.0, and 0.005 M-sodium acetate buffer, pH 4.5 containing 0.15 M NaCl, respectively. The Lineweaver-Burk graphical procedure and secondary plots of the slope against inhibitor concentration were used to determine the nature of inhibition and the values of Ki for these activities.

[3] = biological target: T2, Bovine epididymal α-L-fucosidase (Bos taurus, UniProt Q2KIM0); test: Inhibition of bovine epididymal α-L-fucosidase (Lineweaver-Burk); type: biochemical; conditions: para-nitrophenyl-α-L-fucopyranoside; phosphate-citrate buffer pH 6.0; read-out: Ki (M) Bovine epididymis α-L-fucosidase
T2 construct: Bovine epididymal and Charonia lampas α-L-fucosidase were assayed; from tissue; host or cells: bovine epididymis
T2 sequence (Q2KIM0 23-468): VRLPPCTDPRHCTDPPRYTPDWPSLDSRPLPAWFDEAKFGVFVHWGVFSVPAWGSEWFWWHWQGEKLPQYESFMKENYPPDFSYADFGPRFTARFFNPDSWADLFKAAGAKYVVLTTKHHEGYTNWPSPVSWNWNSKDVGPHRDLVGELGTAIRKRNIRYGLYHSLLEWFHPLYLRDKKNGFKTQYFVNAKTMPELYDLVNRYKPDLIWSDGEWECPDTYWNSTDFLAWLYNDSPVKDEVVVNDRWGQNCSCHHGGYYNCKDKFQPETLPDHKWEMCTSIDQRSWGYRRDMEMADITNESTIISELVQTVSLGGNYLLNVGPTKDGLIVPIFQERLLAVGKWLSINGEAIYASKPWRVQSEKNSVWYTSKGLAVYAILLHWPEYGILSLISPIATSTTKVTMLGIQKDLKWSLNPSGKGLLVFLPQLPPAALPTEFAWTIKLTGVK
Experimental: as §2

[4] = biological target: Charonia lampas α-L-fucosidase; test: Inhibition of Charonia lampas α-L-fucosidase (Lineweaver-Burk); type: biochemical; conditions: para-nitrophenyl-α-L-fucopyranoside; sodium acetate buffer pH 4.5, 0.15 M NaCl; read-out: Ki (M) C. lampas α-L-fucosidase
Experimental: as §1, with “glycosidases. A lyophilized extract of liver from Charonia lampas was obtained from Seikagaku Kogyo Co., Japan for the isolation of α-L-fucosidase by the published procedure of Iijima and Egami, J. Biochem. 70, 75-78 (1971).” for “glycosidases.”
as §2

β-D-galactosidase = biological target: T3, β-D-galactosidase (Homo sapiens, UniProt P16278); test: Glycosidase specificity in human liver extract: β-D-galactosidase; type: biochemical; conditions: read-out: Other specificities (% inhibition at 1 mM): β-D-galactosidase, 1 mM compound
T3 construct: 4-umbelliferyl glycoside substrate
T3 sequence (P16278 29-677): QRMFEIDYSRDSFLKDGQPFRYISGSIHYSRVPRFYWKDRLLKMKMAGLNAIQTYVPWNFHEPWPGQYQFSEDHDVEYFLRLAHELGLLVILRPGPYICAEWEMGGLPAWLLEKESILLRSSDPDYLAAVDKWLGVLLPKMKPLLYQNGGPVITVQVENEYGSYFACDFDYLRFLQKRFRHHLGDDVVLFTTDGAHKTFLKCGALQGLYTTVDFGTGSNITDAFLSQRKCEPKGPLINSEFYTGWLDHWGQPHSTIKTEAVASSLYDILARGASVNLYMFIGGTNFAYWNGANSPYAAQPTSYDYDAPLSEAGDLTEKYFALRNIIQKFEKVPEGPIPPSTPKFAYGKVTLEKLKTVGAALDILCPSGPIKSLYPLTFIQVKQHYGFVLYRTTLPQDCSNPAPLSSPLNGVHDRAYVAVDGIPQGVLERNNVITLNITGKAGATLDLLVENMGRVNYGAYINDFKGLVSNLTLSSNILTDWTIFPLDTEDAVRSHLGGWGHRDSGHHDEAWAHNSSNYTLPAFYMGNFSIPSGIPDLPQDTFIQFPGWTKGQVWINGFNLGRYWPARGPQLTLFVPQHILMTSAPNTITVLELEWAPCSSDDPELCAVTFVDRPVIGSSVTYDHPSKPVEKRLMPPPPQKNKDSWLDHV
Experimental: as §1, with “glycosidases. A lyophilized extract of liver from Charonia lampas was obtained from Seikagaku Kogyo Co., Japan for the isolation of α-L-fucosidase by the published procedure of Iijima and Egami, J. Biochem. 70, 75-78 (1971).” for “glycosidases.”
(§3) The glycosidase activities in an extract of human liver were assayed by using the appropriate fluorigenic 4-umbelliferyl glycoside substrate (Koch-Light, Haverhill, Suffolk, U.K.) with a concentration of 0.5 mM at the optimal pH for each enzyme [Burditt et al., Biochem. J. 189, 467-473 (1980)]. The specificity of the inhibitors was determined by assaying the glycosidases in the presence of and absence of a 1 mM solution of each compound. The nature of the inhibition of human α-L-fucosidase, the value of Ki determined by using the Dixon graphical procedure and the effect of pH on the inhibition were investigated as described previously by Al Daher et al., Biochem. J. 258, 613-615 (1989). […]

α-D-mannosidase = biological target: T4, α-D-mannosidase (Homo sapiens, UniProt O00754); test: Glycosidase specificity in human liver extract: α-D-mannosidase; type: biochemical
T4 construct: The resultant supernatant was used as the source of human glycosidases; from tissue; host or cells: post-mortem human liver, 37,000 g supernatant of homogenate
T4 sequence (O00754 50-601 limits assumed): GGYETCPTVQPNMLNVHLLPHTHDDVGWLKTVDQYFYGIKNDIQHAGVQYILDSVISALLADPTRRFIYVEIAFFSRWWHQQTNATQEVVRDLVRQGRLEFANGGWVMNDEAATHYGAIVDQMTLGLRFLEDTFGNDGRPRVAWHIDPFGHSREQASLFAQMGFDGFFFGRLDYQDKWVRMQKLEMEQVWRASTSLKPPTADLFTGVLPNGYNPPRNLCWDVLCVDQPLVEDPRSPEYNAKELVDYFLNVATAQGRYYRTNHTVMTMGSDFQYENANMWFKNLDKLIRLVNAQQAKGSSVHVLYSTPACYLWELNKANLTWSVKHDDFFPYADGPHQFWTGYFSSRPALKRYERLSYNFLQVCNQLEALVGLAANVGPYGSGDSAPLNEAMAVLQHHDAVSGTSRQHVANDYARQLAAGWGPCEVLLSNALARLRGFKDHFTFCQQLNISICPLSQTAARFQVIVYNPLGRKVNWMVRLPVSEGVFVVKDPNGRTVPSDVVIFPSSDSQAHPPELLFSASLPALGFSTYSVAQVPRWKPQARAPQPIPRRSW
T4 sequence (O00754 602-882 limits assumed): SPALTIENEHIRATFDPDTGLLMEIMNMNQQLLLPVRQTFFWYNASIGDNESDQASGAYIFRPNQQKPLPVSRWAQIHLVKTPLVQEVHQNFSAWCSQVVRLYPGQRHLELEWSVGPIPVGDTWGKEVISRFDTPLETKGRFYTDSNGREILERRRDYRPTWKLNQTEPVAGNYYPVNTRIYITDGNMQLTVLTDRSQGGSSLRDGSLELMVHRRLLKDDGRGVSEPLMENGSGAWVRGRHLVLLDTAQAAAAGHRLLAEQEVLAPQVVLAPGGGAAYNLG
T4 sequence (O00754 883-1011 limits assumed): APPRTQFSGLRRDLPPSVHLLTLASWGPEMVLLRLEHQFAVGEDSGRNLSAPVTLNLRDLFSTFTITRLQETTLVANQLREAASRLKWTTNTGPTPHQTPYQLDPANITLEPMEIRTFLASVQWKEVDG
Experimental: as §1, with “glycosidases. A lyophilized extract of liver from Charonia lampas was obtained from Seikagaku Kogyo Co., Japan for the isolation of α-L-fucosidase by the published procedure of Iijima and Egami, J. Biochem. 70, 75-78 (1971).” for “glycosidases.”
as §3

[5] = system: mammalian α-L-fucosidases; conditions: background statement; cited from earlier work

| Compound | Ki [1] | fucosidase inhibition, in words [1] | pKa (pKa of inhibitors) | Other specificities (% inhibition at 1 mM): N-acetyl-β-D-hexosaminidase [2] | Ki [3] | Ki [4] | other results |
| --- | --- | --- | --- | --- | --- | --- | --- |
| OC[C@H]1NC[C@H](O)[C@@H](O)[C@@H]1O [Compound 1, deoxynojirimycin] |  |  |  |  |  |  | inhibition of α-glucosidase activity, in words (α-glucosidase): potent inhibitors of α-glucosidase activity |
| CC[C@@H]1N[C@H](CO)[C@@H](O)[C@H](O)[C@@H]1O [Compound 8, β-1-C-Ethyl Deoxymannojirimycin] | 0.07 µM | very powerful fucosidase inhibitor | 7.8 | 36% | 2e-06 M | 5.8e-07 M |  |
| C[C@@H]1N[C@H](CO)[C@@H](O)[C@H](O)[C@@H]1O [Compound 7, 2,6-Imino-2,6,7-trideoxy-L-glycero-D-mannohepitol] |  | did not diminish the inhibition of α-L-fucosidase | 7.1 |  | 2e-08 M | 1.4e-07 M | inhibition at 1000 µM (β-D-galactosidase): 27% |
| OC[C@H]1N[C@H](CO)[C@@H](O)[C@H](O)[C@H]1O [Compound 2, α-homonojirimycin] |  |  |  |  |  |  | inhibition of α-glucosidase activity, in words (α-glucosidase): potent inhibitors of α-glucosidase activity |
| OC[C@H]1NC[C@@H](O)[C@@H](O)[C@@H]1O [Compound 10, deoxymannojirimycin] |  |  | 7.2 |  |  |  | inhibition of mannosidase activity, in words (α-D-mannosidase): showed any inhibition of mannosidase activity; inhibition at 1000 µM (α-D-mannosidase; read-out: Other specificities (% inhibition at 1 mM): α-D-mannosidase, human liver extract, 1 mM compound): 64% |
| C[C@H]1[C@@H](O)[C@@H](O)[C@H](O)CN1C [MeFDJ, reference compound] | 0.05 µM |  | 7.8 | 59% |  |  |  |
| C[C@@H]1NC[C@@H](O)[C@H](O)[C@@H]1O [Compound 4, 1,5-Dideoxy-1,5-imino-L-fucitol] |  |  |  |  |  |  | inhibition of mammalian α-L-fucosidases, in words [5]: very powerful and highly specific inhibitor |
| OC[C@H]1N[C@@H](c2ccccc2)[C@@H](O)[C@@H](O)[C@@H]1O [Compound 9, β-1-C-Phenyl Deoxymannojirimycin] | 1 µM | more potent fucosidase inhibitor than is DMJ (10) | 6.3 | 50% | 5.5e-06 M | 0.002 M |  |
